Assay results: patent US20100204181A1, “N-HALOGENATED AMINO ACID FORMULATIONS COMPRISING PHOSPHINE OR AMINE OXIDES” (ALCON RESEARCH, LTD., priority 2009, published 2010)

Key:
[1] = Chemical stability of N,N-dichloro-2,2-dimethyltaurine solution with and without TBPO or TMAO; assay type: physicochemical
Text: FIG. 1 is a graph showing the stability of a 0.1 w/v % solution of N,N-dichloro-2,2-dimethyltaurine with and without 0.01 w/v % TBPO; and
FIG. 2 is a graph showing the stability of a 0.11 w/v % solution of N,N-dichloro-2,2-dimethyltaurine with and without 0.037 w/v % TMAO.
The present inventors have discovered that the antimicrobial activity of N-halogenated amino acid compounds is enhanced in a formulation comprising a phosphine oxide or amine oxide compound. The enhancement is synergistic, as the phosphine oxide and amine oxide compounds tested have no intrinsic antimicrobial activity. Also the increase in antimicrobial activity of the N-halogenated amino acid compound in the presence of a phosphine oxide and/or amine oxide compound is likely not due to a chemical reaction that generates a new and more reactive chemical species.

S. aureus = test: Viable cells per mL of S. aureus after treatment; assay type: cell-based; conditions: 5 minutes after treatment
Method: As shown above in Table 1, there were only 24 viable cells per mL measured 5 minutes after treatment with 0.001% N,N-dichloro-2,2-dimethyltaurine formulated with acetate buffer at pH 4. In contrast, there were 27429 and 910 viable cells per mL 5 minutes after treatment with a 0.001% N,N-dichloro-2,2-dimethyltaurine formulation comprising no buffer and adipic acid buffer, respectively.

## CC(C)(CS(=O)(=O)O)N(Cl)Cl [N,N-dichloro-2,2-dimethyltaurine]
[1]; 0.1 w/v % solution with and without 0.01 w/v % TBPO (FIG. 1)
  chemical stability: not affected
[1]; 0.11 w/v % solution with and without 0.037 w/v % TMAO (FIG. 2)
  chemical stability: not affected
S. aureus; 0.001% formulated with acetate buffer at pH 4
  viable cells per mL: 24 cells per mL
S. aureus; 0.001% formulation, adipic acid buffer
  viable cells per mL: 910 cells per mL
S. aureus; 0.001% formulation, no buffer
  viable cells per mL: 27429 cells per mL
